The results in this text go back to patent US20110028490A1, “4-PHENYL-PIPERAZIN-1-YL-ALKYL-BENZOIMIDAZOL-2-ONE DERIVATIVES AND THEIR USE AS MONOAMINE NEUROT[…]-UPTAKE IN-HIBITORS” (N[…]/S, priority 2008, published 2011).

Where a name gives a salt, the structure may show the parent alone.

What all share (type): biochemical
Test [1] relates to serotonine (5-HT) reuptake in synaptosomes. The experiment in a line: Inhibition of 5-HT reuptake in synaptosomes. Particulars: 3H-5-HT, read-out: 5-HT-uptake IC50. As for the experimental part:
(§1) Compounds were tested for their ability to inhibit the reuptake of the monoamine neurotransmitters dopamine (DA) noradrenaline (NA) and serotonine (5-HT) in synaptosomes as described in WO 97/16451 (NeuroSearch A/S).
(§2) The test values are given as IC50 (the concentration (μM) of the test substance which inhibits the specific binding of ^3H-DA, ^3H-NA, or ^3H-5-HT by 50%).

For test [2], the system named is dopamine (DA) reuptake in synaptosomes. The experiment in a line: Inhibition of DA reuptake in synaptosomes. Particulars: 3H-DA, read-out: DA-uptake IC50. As for the experimental part:
as §1, §2

The test system of test [3] is noradrenaline (NA) reuptake in synaptosomes. The test can be described thus: Inhibition of NA reuptake in synaptosomes. Particulars: 3H-NA, read-out: NA-uptake IC50. The protocol: as §1, §2

The term IC50 denotes the concentration that gives 50% inhibition. `O=c1n(CCN2CCN(c3ccc(Cl)cc3)CC2)c2ccccc2n1C1=CCCCC1` [Compound A3, 1-{2-[4-(4-Chloro-phenyl)-piperazin-1-yl]-ethyl}-3-cyclohex-1-enyl-1,3-dihydro-benzoimidazol-2-one fumaric acid salt]: the values for the IC50 in test [1], in test [2] and in test [3] were 22 nM, 430 nM and above 1000 nM, respectively.
For `C=C(C)n1c(=O)n(CCN2CCN(c3ccc(Cl)c(Cl)c3)CC2)c2ccccc21` [Compound A1, 1-{2-[4-(3,4-Dichloro-phenyl)-piperazin-1-yl]-ethyl}-3-isopropenyl-1,3-dihydro-benzoimidazol-2-one fumaric acid salt], the IC50 in test [1] was determined as 1 nM; in test [2], 1100 nM; in test [3], 1070 nM.
